Reference: US9012471B2, “Glucose metabolism modulating compounds” (The Trustees of Columbia University in the City of New York, priority 2008, dated 2015)

Experiments:
[1] = test system: Lewis rats; experiment: Intraperitoneal glucose tolerance test (IPGTT), blood glucose; type: in vivo, rat; conditions: for hypoglycemic activity in IPGTT (improvement of glucose tolerance): 2 mg/kg i.v., Lewis rats; for decrease of AUC IPGTT: 2 mg/kg i.v. 30 minutes before glucose 2 g/kg I.P.
Procedure: Rats were handled daily to minimize nonspecific stress for more than 7 days before the experiments began. In most experiments, it was necessary to measure blood glucose in fasting animals. For these groups, food was removed at the beginning of the light cycle, 6 hours before glucose levels were tested.
Sixty minutes prior to intraperitoneal glucose tolerance testing (IPGTT), anesthesia of male Lewis rats was induced with isoflurane (3-4% in oxygen) and maintained with 1-2% isoflurane in oxygen.
Anaesthetized rats were administered TBZ at the indicated dose by intravenous (i.v.) injection using the penile vein. […] Control rats received injections of vehicle alone (10% DMSO in Saline).
(§1) Animals were fully recovered for at least 30 minutes before receiving IPGTT. In specified experiments, L-DOPA was injected interperitoneal (I.P.) at the specified dose at the initiation of IPGTT. Abnormal glucose tolerance was induced by a single I.P. injection of streptozotocin (STZ) (Sigma Aldrich, St. Louis, Mo.) (50 mg/kg) to animals that had been fasted 4 hours to enhance the efficacy of STZ.
(§2) Blood samples were collected between 12:00 noon and 2:00 p.m. from a superficial blood vessel in the tails of the rats following 6 hours of fasting. The fasting blood glucose (BG) levels of the rats were measured using an Accu-Check blood glucose monitoring system (Roche Diagnostics, Sommerville, N.J.). IPGTT was performed in 6-hour fasting anaesthetized animals as previously described (Weksler-Zangen, et al. 2001). Briefly, after baseline BG measurements, animals received an I.P. injection of 2 grams of glucose/kg body weight. To minimize stress during the procedure, rats were handled by the same operator during acclimatization and later during weighing and IPGTT. Blood samples (50 μl or 150 μl) were collected at baseline and then again 15, 30, 60, 90, and 120 minutes following I.P. injection of glucose. Blood glucose concentrations were measured immediately on these samples and the remainder processed. Plasma was immediately separated by centrifugation at 3,000×g for 15 minutes and then stored at −80° C. until analysis.
(§3) Insulin and glucagon concentration measurements in rat plasma were performed by ELISA as per the manufacturer's instructions using kits from Linco Research Inc. (St. Charles, Mich.) and Alpco Diagnostics (Salem, N.H.), respectively. To validate the test, saline injections were performed by the same method. […] The area under the insulin, glucagon and IPGTT glucose concentration×time curve (AUC IPGTT) was calculated by the trapezoidal rule.

[2] = molecular target: T1, DPP-IV (Homo sapiens, UniProt P27487); experiment: DPP profiling service (BPS Bioscience), in vitro; type: biochemical; conditions: concentrations up to 10 μM
T1 construct: purchased BPS Bioscience, Inc. (San Diego, Calif.)
Procedure: The effect of DTBZ on DDP-IV was determined using the DPP profiling service from BPS Bioscience, Inc. (San Diego, Calif.).

[3] = molecular target: T2, VMAT2 (Rattus norvegicus, UniProt Q01827); experiment: Fake Fluorescent Neurotransmitter (FFN) uptake high throughput assay in INS 832/13 cells; type: cell-based; conditions: for block of FFN uptake/transport: one hour preincubation
T2 construct: endogenous in cells; host or cells: rat INS 832/13 insulinoma cells
Excerpt: A high throughput (HTP) assay was developed to screen for compounds that interact with, e.g., bind to, VMAT2. The HTP exploits a class of compounds called Fake Fluorescent Neurotransmitters (FFN) that share the following characteristics a) low molecular weight and sufficiently hydrophilic to be water soluble; b) in aqueous buffer (pH 7), the excitation maxima is around 380-406 nm and the emission maxima is around 501 nm; and c) similar Kd for VMAT2 as dopamine. To validate the use of these compounds in beta cell lines (positive for VMAT2) the following set of experiments were performed.
The rat INS 832/13 cell line was selected because it secretes insulin in response to glucose concentrations in the physiological range and can be shown to contain VMAT2 by PCR. […] INS cells were grown on cover slips in normal media, then pretreated with and without DTBZ in low glucose media for one hour and then loaded with FFN (GH206). The distribution of fluorescent dye was then examined under a fluorescent microscope. The FFN distributes itself intracellularly in a punctate pattern similar, if not identical, to insulin containing granules of this cell line (data not shown). […] For better quantitation of the fluorescent signal, the cells were grown in […] and the same experiment substantially repeated. Briefly, cells were grown to confluence in complete high glucose media, then incubated for one hour in low glucose media. DTBZ was then added to the wells for one hour, followed with a second one hour incubation with FFN. Wells were then washed and the fluorescent signal (380 exc, 512 emm) measured in a multiwell fluorometer (Synergy HT Multi-Mode Microplate Reader).

[4] = molecular target: T2, VMAT2; experiment: PET displacement of [11C]DTBZ in pancreas; type: in vivo; conditions: cold compound 2 mg/kg, 30 minutes after radioligand
Procedure: PET scans were performed on 12-14-week-old Lewis male rats. Prior to imaging, the animals were anesthetized by isoflurane inhalation. After a transmission scan of the area of interest had been acquired (used to perform attenuation correction of the emission data), the radioligand [^11C]DTBZ was administered (0.5-1.0 μCi/gm) in saline as a bolus injection via the penile vein. PET scans of the animals were acquired dynamically to 90 minutes post-injection on a Concorde microPET-R4 (CTI Molecular Imaging (Knoxville, Tenn.)). The scanner provided a 100×80 mm field of view with a reconstructed resolution of 2.25 mm in the central 40 mm of the field of view.
At thirty minutes post injection of [^11C]DTBZ, animals received a second injection via the penile vein of cold analog. PET data were processed using an attenuation correction matrix obtained by transmission scans and images were reconstructed using Fourier rebinning, followed by two-dimensional, filtered back projection using microPET manager software (CTI Molecular Imaging (Knoxville, Tenn.)).
To test whether the strong hypoglycemic effect of compound 8 is conferred by binding to VMAT2 in beta cells, a PET study in rats was performed. The animals were treated with radiolabeled DTBZ, and the uptake of [^11C]DTBZ in pancreas was monitored by PET scan in the presence of an excess of compound 8.

[5] = test system: Lewis rats; experiment: Plasma insulin and glucagon during IPGTT; type: in vivo, rat
Procedure: as §2, with “The” for “Blood samples were collected between 12:00 noon and 2:00 p.m. from a superficial blood vessel in the tails of the rats following 6 hours of fasting. The”, “([…],” for “(Weksler-Zangen,”, “-80°” for “−80°”, “analysis. Insulin and glucagon concentration measurements in rat plasma were performed by ELISA as per the manufacturer's instructions using kits from Linco Research Inc. (St. Charles, Mich.) and Alpco Diagnostics (Salem, N.H.), respectively. To validate the test, saline injections were performed by the same method. […] The area under the insulin, glucagon and IPGTT glucose concentration×time curve (AUC IPGTT) was calculated by the trapezoidal rule.” for “analysis.”

[6] = test system: purified rat islets; experiment: Static glucose stimulated insulin secretion in purified islets; type: cell-based; conditions: 100 nM DTBZ
Procedure: Rat pancreas digestion, islet isolations, and static insulin secretion assays were performed as previously described (Niswender et al. 2005; Sweet, et al. 2004; Sweet and Gilbert 2006). Purified islets were cultured in RPMI 1640 culture media with 10% fetal bovine serum at 37° C. in humidified air (5% CO2) for 18 to 24 hours. Assessment of insulin secretion in static media was carried out as follows. Islets were handpicked twice into a Petri dishes containing Krebs-Ringer bicarbonate (KRB) buffer (with 3 mM glucose and 0.1% BSA) and pre-incubated for 60 minutes (37° C. and 5% CO2). Subsequently, batches of 100 islets (in quadruplicate) were transferred into 96-well plates containing 200 μl of KRB with either 3 or 20 mM glucose, with or without 100 nM DTBZ and incubated for 60 minutes. The supernatant was removed and the insulin was measured using ELISA (ALPCO, Windham, N.H.).

[7] = test system: Lewis rats; experiment: Dopamine content of brain and pancreas tissue by ELISA after TBZ; type: in vivo, rat; conditions: 1.5 mg/Kg i.v., one hour after injection
Procedure: Euthanasia was performed by exsanguination of the anesthetized animal. Brain and pancreas were harvested as quickly as possible and frozen at −80° C. until use. […] The tissue extract was centrifuged at 10,000×g at 4° C. to remove debris and the total protein was estimated by reading the absorbance at 280 nm.

[8] = test system: STZ treated rats; experiment: IPGTT and insulin in streptozotocin (STZ) treated rats; type: in vivo, rat; conditions: TBZ 1.5 mg/Kg
Procedure: as §1
STZ solution was prepared fresh by dissolving it in 0.1 M citrate buffer (pH 5.5) and terminally sterile filtered. Control Lewis age and weight matched rats received a 0.5 ml/kg citrate vehicle alone via intraperitoneal injection. […]
Blood samples were collected between 12:00 noon and 2:00 p.m. from a superficial blood vessel in the tails of the rats following 6 hours of fasting. The fasting blood glucose (BG) levels of the rats were measured using an Accu-Check blood glucose monitoring system (Roche Diagnostics, Sommerville, N.J.). […] Blood glucose concentrations were measured immediately on these samples and the remainder processed. […]
as §3, with “respectively.” for “respectively. To validate the test, saline injections were performed by the same method.”

[9] = molecular target: VMAT2 (Homo sapiens, UniProt Q05940); conditions: cited from earlier work
[10] = rats; cited from earlier work
[11] = test system: rats; conditions: cited from earlier work
[12] = molecular target: T3, VMAT1 (Homo sapiens, UniProt P54219); conditions: cited from earlier work
T3 sequence (P54219 1-525): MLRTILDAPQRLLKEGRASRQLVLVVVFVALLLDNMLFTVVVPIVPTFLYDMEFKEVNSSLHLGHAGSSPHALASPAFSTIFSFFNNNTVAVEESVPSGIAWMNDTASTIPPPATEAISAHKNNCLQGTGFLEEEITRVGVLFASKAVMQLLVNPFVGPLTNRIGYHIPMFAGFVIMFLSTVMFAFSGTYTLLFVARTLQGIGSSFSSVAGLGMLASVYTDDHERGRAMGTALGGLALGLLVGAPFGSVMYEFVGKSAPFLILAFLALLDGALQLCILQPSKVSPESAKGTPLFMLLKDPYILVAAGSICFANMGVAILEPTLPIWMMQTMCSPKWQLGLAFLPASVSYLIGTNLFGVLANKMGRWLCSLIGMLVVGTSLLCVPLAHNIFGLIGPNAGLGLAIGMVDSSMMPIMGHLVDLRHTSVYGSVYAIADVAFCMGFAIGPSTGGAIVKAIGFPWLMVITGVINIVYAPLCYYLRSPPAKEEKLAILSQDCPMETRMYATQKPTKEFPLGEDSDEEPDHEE

T2 sequence (Q01827 whole entry): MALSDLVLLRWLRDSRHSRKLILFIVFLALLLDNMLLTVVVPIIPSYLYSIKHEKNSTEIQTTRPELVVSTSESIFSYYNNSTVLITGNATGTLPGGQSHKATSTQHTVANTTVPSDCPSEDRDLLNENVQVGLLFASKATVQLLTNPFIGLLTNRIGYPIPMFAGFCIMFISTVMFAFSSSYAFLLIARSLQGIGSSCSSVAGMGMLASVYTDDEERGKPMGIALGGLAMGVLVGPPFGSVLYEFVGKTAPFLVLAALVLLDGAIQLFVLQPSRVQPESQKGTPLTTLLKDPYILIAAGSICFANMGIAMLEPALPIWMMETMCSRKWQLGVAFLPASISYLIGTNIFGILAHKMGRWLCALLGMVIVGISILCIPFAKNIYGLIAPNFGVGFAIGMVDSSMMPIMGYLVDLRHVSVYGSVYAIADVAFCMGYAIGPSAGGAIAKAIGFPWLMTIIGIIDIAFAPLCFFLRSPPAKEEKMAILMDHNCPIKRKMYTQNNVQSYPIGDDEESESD
T1 sequence (P27487 whole entry, species assumed): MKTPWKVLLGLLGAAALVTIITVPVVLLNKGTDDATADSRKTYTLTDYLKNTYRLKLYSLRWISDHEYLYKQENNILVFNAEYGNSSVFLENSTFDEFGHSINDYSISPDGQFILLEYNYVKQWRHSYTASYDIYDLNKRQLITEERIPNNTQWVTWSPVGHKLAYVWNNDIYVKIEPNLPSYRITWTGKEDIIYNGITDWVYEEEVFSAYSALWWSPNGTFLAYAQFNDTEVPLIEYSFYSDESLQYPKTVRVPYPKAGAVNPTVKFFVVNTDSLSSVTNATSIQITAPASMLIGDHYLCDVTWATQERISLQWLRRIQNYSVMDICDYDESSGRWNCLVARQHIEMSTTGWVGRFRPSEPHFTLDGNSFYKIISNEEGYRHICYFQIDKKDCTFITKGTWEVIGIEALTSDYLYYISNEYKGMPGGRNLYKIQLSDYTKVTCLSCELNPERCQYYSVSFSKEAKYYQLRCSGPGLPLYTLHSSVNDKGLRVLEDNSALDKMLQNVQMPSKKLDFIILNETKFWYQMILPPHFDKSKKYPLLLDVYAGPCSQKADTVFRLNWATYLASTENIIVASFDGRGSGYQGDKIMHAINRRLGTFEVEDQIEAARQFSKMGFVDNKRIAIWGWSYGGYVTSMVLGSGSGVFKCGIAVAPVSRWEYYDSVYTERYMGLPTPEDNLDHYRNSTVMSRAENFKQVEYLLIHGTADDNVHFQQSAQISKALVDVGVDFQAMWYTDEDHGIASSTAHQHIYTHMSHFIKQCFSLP
Sequence of VMAT2 (Homo sapiens, UniProt Q05940) (Q05940 whole entry): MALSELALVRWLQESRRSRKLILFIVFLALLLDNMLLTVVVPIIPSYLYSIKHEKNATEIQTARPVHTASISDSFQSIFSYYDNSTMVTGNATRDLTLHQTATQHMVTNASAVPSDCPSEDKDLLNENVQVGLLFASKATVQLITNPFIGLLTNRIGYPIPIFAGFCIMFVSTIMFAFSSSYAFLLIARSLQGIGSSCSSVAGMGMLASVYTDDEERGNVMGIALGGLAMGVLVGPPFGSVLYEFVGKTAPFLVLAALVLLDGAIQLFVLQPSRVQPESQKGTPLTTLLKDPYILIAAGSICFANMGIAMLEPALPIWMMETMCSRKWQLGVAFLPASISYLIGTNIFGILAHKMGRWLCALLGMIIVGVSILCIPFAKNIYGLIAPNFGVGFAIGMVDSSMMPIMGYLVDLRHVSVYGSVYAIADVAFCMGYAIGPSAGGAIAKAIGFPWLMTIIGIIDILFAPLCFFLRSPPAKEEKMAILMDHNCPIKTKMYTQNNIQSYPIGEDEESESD

COC1=CC(=O)N2CCc3cc(OC)c(OC)cc3C2C1 (stereo not drawn) [compound 15]
hypoglycemic activity in IPGTT (improvement of glucose tolerance) [1]: active but less potent

COc1ccc(C2CC(O)C(CC(C)C)CN2)cc1OC (racemic) [compound 1]
hypoglycemic activity in IPGTT (improvement of glucose tolerance) [1]: less potent than TBZ

COc1ccc(C2CC(OCC(C)C)=CC(=O)N2)cc1OC (stereo not drawn) [compound 8]
effect on DPP-IV [2]: negative
activity on a per mole basis in blocking FFN transport [3]: less than that of DTBZ
block of FFN uptake/transport [3]: able to block FFN transport into INS vesicles
decrease of AUC IPGTT [1]: 45%
hypoglycemic activity in IPGTT (improvement of glucose tolerance) [1]: potent hypoglycemic effect
binding to VMAT2, displacement of [11C]DTBZ in the endocrine pancreas, relative to DTBZ [4]: at least a weak binding

N[C@@H](Cc1ccc(O)c(O)c1)C(=O)O [L-DOPA, L-3,4-dihydroxyphenylalanine]
effect on TBZ-lowered AUC IPGTT ([1]; L-DOPA 6.0 mg/Kg I.P., one hour after TBZ, concurrent with glucose): reverse the effects of TBZ

NCCc1ccc(O)c(O)c1 [dopamine]
effect on insulin enhancement by TBZ ([5]; dopamine i.v. at the same time as glucose): partially blocked the insulin enhancing effects of TBZ

COc1cc2c(cc1OC)[C@H]1C[C@@H](O)[C@H](CC(C)C)CN1CC2 [DTBZ, dihydrotetrabenazine]
effect on DPP-IV [2]: no effect
block of FFN uptake/transport [3]: able to block uptake of FFN
enhancement of glucose stimulated insulin secretion ([6]; high glucose (20 mM), 60 minutes): two to three fold
increase in insulin secretion ([6]; low glucose (3 mM)): not statistically significant

COc1cc2c(cc1OC)C1CC(=O)C(CC(C)C)CN1CC2 (stereo not drawn) [TBZ, tetrabenazine]
dopamine content of brain [7]: significantly reduced
AUC IPGTT ([8]; STZ treated rats): decreased
increase of AUC insulin ([8]; STZ treated rats which maintained glucose dependant insulin secretion): 50%-80%
dissociation constant [9]: nanomolar range
plasma elimination half life, t1/2 [10]: 2 h
reduction of dopamine levels in the brain [11]: 40%
reduction of norepinephrine levels in the brain [11]: 41%
reduction of serotonin levels in the brain [11]: 44%
reduction of glucose excursion (AUC IPGTT) ([1]; 2.25 μg/gm body weight i.v., older male Lewis rats >11 weeks): approximately 35%
decrease of AUC IPGTT [1]: 26%
baseline fasting glucose concentration versus control animals ([1]; about 1 hour after TBZ, before glucose challenge): no reproducible differences
AUC IPGTT ([1]; chronic administration, approximately 0.1 mg/Kg body weight for five days): suppressed the AUC IPGTT in a fashion similar to the single high dose
AUC IPGTT ([1]; doses higher than 5.0 mg/Kg): increasingly variable, often surpassing that of control levels
glucose tolerance enhancing effect (AUC IPGTT) ([1]; doses lower than 0.3 mg/Kg): undetectable
AUC plasma glucagon ([5]; i.v. TBZ and glucose challenge): lower relative to controls
reduced affinity towards VMAT1 versus VMAT2 [12]: more than 10,000 fold
